# Test: in vitro
# Conditions: human, hek293t cells
row,Compound,"viability at 48 h, 25 µM [%]"
1,"Cc1cc(C=C(C#N)C(=O)Nc2cnn(C)c2)c(C)n1C1CCCCC1 [9-B17, 2-cyano-3-(1-cyclohexyl-2,5-dimethyl-1H-pyrrol-3-yl)-N-(1-methyl-1H-pyrazol-4-yl)prop-2-enamide]",96.1
2,"Cc1nc2cc(NC(=O)C(C#N)=Cc3ccco3)ccc2n1C [9-B18, 2-cyano-N-(1,2-dimethyl-1H-1,3-benzodiazol-5-yl)-3-(furan-2-yl)prop-2-enamide]",106
3,"Cc1ccc(NC(=O)C(C#N)=CC2=Cc3ccccc3OC2)cc1 [9-B19, 3-(2H-chromen-3-yl)-2-cyano-N-(4-methylphenyl)prop-2-enamide]",119
4,"N#CC(=Cc1ccco1)C(=O)NCc1nc(-c2ccncc2)cs1 [9-B20, 2-cyano-3-(furan-2-yl)-N-{[4-(pyridin-4-yl)-1,3-thiazol-2-yl]methyl}prop-2-enamide]",109
5,"CN(C)c1ccc(C=C(C#N)C(=O)Nc2ccc3c(c2)OCCO3)cc1 [9-B21, 2-cyano-N-(2,3-dihydro-1,4-benzodioxin-6-yl)-3-[4-(dimethylamino)phenyl]prop-2-enamide]",110
6,"COc1ccc(C=C(C#N)C(=O)Nc2cc(C)ccc2C)cc1Cl [9-B22, 3-(3-chloro-4-methoxyphenyl)-2-cyano-N-(2,5-dimethylphenyl)prop-2-enamide]",92.9
7,"CCCCNC(=O)C(C#N)=Cc1cc(C)cc(C)c1 [9-C03, N-butyl-2-cyano-3-(3,5-dimethylphenyl)prop-2-enamide]",122
8,"COc1cc(C)c(C=C(C#N)C(=O)Nc2ccc(C)cc2)cc1C(C)C [9-C04, 2-cyano-3-[4-methoxy-2-methyl-5-(propan-2-yl)phenyl]-N-(4-methylphenyl)prop-2-enamide]",127
9,"CCCNC(=O)C(C#N)=Cc1ccc(-n2cncn2)c(C)c1 [9-C05, 2-cyano-3-[3-methyl-4-(1H-1,2,4-triazol-1-yl)phenyl]-N-propylprop-2-enamide]",96
10,"CCOc1ccc(C=C(C#N)C(=O)Nc2nccs2)cc1 [9-C06, 2-cyano-3-(4-ethoxyphenyl)-N-(1,3-thiazol-2-yl)prop-2-enamide]",94.3
11,"CC(C)NC(=O)C(C#N)=Cc1cccc(Cl)c1Cl [9-C07, 2-cyano-3-(2,3-dichlorophenyl)-N-(propan-2-yl)prop-2-enamide]",39.7
12,"COc1ccc(NC(=O)C(C#N)=Cc2cccc(O)c2)cc1Cl [9-C08, N-(3-chloro-4-methoxyphenyl)-2-cyano-3-(3-hydroxyphenyl)prop-2-enamide]",102
13,"CC(C)NC(=O)C(C#N)=Cc1ccc(Cl)cc1 [9-C09, 3-(4-chlorophenyl)-2-cyano-N-(propan-2-yl)prop-2-enamide]",86.7
14,"C#CCOc1ccccc1C=C(C#N)C(=O)Nc1ccccc1F [9-C10, 2-cyano-N-(2-fluorophenyl)-3-[2-(prop-2-yn-1-yloxy)phenyl]prop-2-enamide]",80.4
15,"CCCCNC(=O)C(C#N)=Cc1cc(C)ccc1C [9-C11, N-butyl-2-cyano-3-(2,5-dimethylphenyl)prop-2-enamide]",93.1
16,"C=CCNC(=O)C(C#N)=Cc1ccc(-c2ccc(F)cc2)s1 [9-C12, 2-cyano-3-[5-(4-fluorophenyl)thiophen-2-yl]-N-(prop-2-en-1-yl)prop-2-enamide]",111
17,"CC(C)NC(=O)C(C#N)=Cc1ccc2ccccc2c1 [9-C13, 2-cyano-3-(naphthalen-2-yl)-N-(propan-2-yl)prop-2-enamide]",77.9
18,"N#CC(=Cc1ccc(SC(F)(F)F)cc1)C(=O)NC1CC1 [9-C14, 2-cyano-N-cyclopropyl-3-{4-[(trifluoromethyl)sulfanyl]phenyl}prop-2-enamide]",55.5
19,"CC(C)NC(=O)C(C#N)=Cc1ccccc1OC(C)C [9-C15, 2-cyano-N-(propan-2-yl)-3-[2-(propan-2-yloxy)phenyl]prop-2-enamide]",112
20,"N#CC(=Cc1csc(C2CC2)n1)C(=O)Nc1ccccc1C(=O)O [9-C16, 2-[2-cyano-3-(2-cyclopropyl-1,3-thiazol-4-yl)prop-2-enamido]benzoic acid]",92.9
21,"N#CC(=Cc1ccsc1)C(=O)Nc1nccs1 [9-C17, 2-cyano-N-(1,3-thiazol-2-yl)-3-(thiophen-3-yl)prop-2-enamide]",121
22,"N#CC(=Cc1sc2ccccc2c1Cl)C(=O)NC1CC1 [9-C18, 3-(3-chloro-1-benzothiophen-2-yl)-2-cyano-N-cyclopropylprop-2-enamide]",86.4
23,"N#CC(=Cc1cccc(O)c1)C(=O)Nc1ccc(SC(F)F)cc1 [9-C19, 2-cyano-N-{4-[(difluoromethyl)sulfanyl]phenyl}-3-(3-hydroxyphenyl)prop-2-enamide]",99.7
24,"COc1cccc(NC(=O)C(C#N)=Cc2c[nH]c(-c3ccccc3)n2)c1 [9-C20, 2-cyano-N-(3-methoxyphenyl)-3-(2-phenyl-1H-imidazol-4-yl)prop-2-enamide]",108

row,Compound,"viability at 48 h, 25 µM [%]"
1,"N#CC(=Cc1ccc(F)cc1)C(=O)Nc1cccc2ncccc12 [9-C21, 2-cyano-3-(4-fluorophenyl)-N-(quinolin-5-yl)prop-2-enamide]",118
2,"Cc1ccc(C=C(C#N)C(=O)Nc2ccccc2Cl)s1 [9-C22, N-(2-chlorophenyl)-2-cyano-3-(5-methylthiophen-2-yl)prop-2-enamide]",107
3,"Cc1nn(C)c(C)c1C=C(C#N)C(=O)Nc1ccc2c(c1)OCCO2 [9-D03, 2-cyano-N-(2,3-dihydro-1,4-benzodioxin-6-yl)-3-(1,3,5-trimethyl-1H-pyrazol-4-yl)prop-2-enamide]",112
4,"CCOc1cc2c(cc1C=C(C#N)C(N)=O)OC(C)C2 (stereo not drawn) [9-D04, 2-cyano-3-(5-ethoxy-2-methyl-2,3-dihydro-1-benzofuran-6-yl)prop-2-enamide]",128
5,"Cc1ccc(NC(=O)C(C#N)=Cc2ccccc2OC(F)F)cc1 [9-D05, 2-cyano-3-[2-(difluoromethoxy)phenyl]-N-(4-methylphenyl)prop-2-enamide]",96.9
6,"CCOC=C(C#N)C(=O)N1CCN(S(=O)(=O)c2cc[nH]n2)CC1 [9-D06, 3-ethoxy-2-[4-(1H-pyrazole-3-sulfonyl)piperazine-1-carbonyl]prop-2-enenitrile]",110
7,"COc1ccc2cc(C=C(C#N)C(=O)NCc3ccccc3)ccc2c1 [9-D07, N-benzyl-2-cyano-3-(6-methoxynaphthalen-2-yl)prop-2-enamide]",108
8,"N#CC1=C(N2CCOCC2)SC(c2ccc([N+](=O)[O-])cc2)NC1=O (stereo not drawn) [9-D08, 6-(morpholin-4-yl)-2-(4-nitrophenyl)-4-oxo-3,4-dihydro-2H-1,3-thiazine-5-carbonitrile]",112
9,"N#CC(=Cc1ccc(Cl)cc1)C(=O)Nc1cccc2c1C(=O)NC2=O [9-D09, 3-(4-chlorophenyl)-2-cyano-N-(1,3-dioxo-2,3-dihydro-1H-isoindol-4-yl)prop-2-enamide]",105
10,"CN(C)c1ccc(C=C(C#N)C(=O)NCc2ccco2)cc1 [9-D10, 2-cyano-3-[4-(dimethylamino)phenyl]-N-[(furan-2-yl)methyl]prop-2-enamide]",101
11,"CCCn1c(C)cc(C=C(C#N)C(=O)N2CCCCC2)c1C [9-D11, 3-(2,5-dimethyl-1-propyl-1H-pyrrol-3-yl)-2-(piperidine-1-carbonyl)prop-2-enenitrile]",106
12,"Cc1ccc(C)c(NC(=O)C(C#N)=Cc2ccc(N3CCCCC3)o2)c1 [9-D12, 2-cyano-N-(2,5-dimethylphenyl)-3-[5-(piperidin-1-yl)furan-2-yl]prop-2-enamide]",69.5
13,"Cc1cc(C=C(C#N)C(=O)Nc2nccs2)cc(C)c1O [9-D13, 2-cyano-3-(4-hydroxy-3,5-dimethylphenyl)-N-(1,3-thiazol-2-yl)prop-2-enamide]",106
14,"CNC(=O)C(C#N)=Cc1cccc(C)c1C [9-D14, 2-cyano-3-(2,3-dimethylphenyl)-N-methylprop-2-enamide]",112
15,"CC(NC(=O)C(C#N)=Cc1cc(O)ccc1[N+](=O)[O-])c1ccccc1 (stereo not drawn) [9-D15, 2-cyano-3-(5-hydroxy-2-nitrophenyl)-N-(1-phenylethyl)prop-2-enamide]",101
16,"N#CC(=Cc1csc2ccccc12)C(=O)NCc1ccco1 [9-D16, 3-(1-benzothiophen-3-yl)-2-cyano-N-[(furan-2-yl)methyl]prop-2-enamide]",108
17,"Cc1cccc(NC(=O)C(C#N)=Cc2cc(C)n(C3CC3)c2C)c1 [9-D17, 2-cyano-3-(1-cyclopropyl-2,5-dimethyl-1H-pyrrol-3-yl)-N-(3-methylphenyl)prop-2-enamide]",94.3
18,"Cn1cc(C=C(C#N)C(=O)N2CCCC2)c(-c2cc3ccccc3o2)n1 [9-D18, 3-[3-(1-benzofuran-2-yl)-1-methyl-1H-pyrazol-4-yl]-2-(pyrrolidine-1-carbonyl)prop-2-enenitrile]",106
19,"CC(=O)Nc1ccc(C=C(C#N)C(=O)Nc2cccc(C)c2C)cc1 [9-D19, 2-cyano-N-(2,3-dimethylphenyl)-3-(4-acetamidophenyl)prop-2-enamide]",107
20,"N#CC(=Cc1ccco1)C(=O)Nc1cc2c(cc1Cl)NC(=O)CO2 [9-D20, N-(6-chloro-3-oxo-3,4-dihydro-2H-1,4-benzoxazin-7-yl)-2-cyano-3-(furan-2-yl)prop-2-enamide]",87
21,"C=CCNC(=O)C(C#N)=Cc1ccc(C)c(C)c1 [9-D21, 2-cyano-3-(3,4-dimethylphenyl)-N-(prop-2-en-1-yl)prop-2-enamide]",110
22,"COCCNC(=O)C(C#N)=Cc1ccc(O)cc1 [9-D22, 2-cyano-3-(4-hydroxyphenyl)-N-(2-methoxyethyl)prop-2-enamide]",110
23,"N#CC(=Cc1ccc2[nH]c(=O)[nH]c2c1)C(=O)NC1CCCC1 [9-E03, 2-cyano-N-cyclopentyl-3-(2-oxo-2,3-dihydro-1H-1,3-benzodiazol-5-yl)prop-2-enamide]",121
24,"Cc1ccc(NC(=O)C(C#N)=Cc2ccc(C(C)(C)C)cc2)cc1C [9-E04, 3-(4-tert-butylphenyl)-2-cyano-N-(3,4-dimethylphenyl)prop-2-enamide]",104
